Test [1] concerns the target Dopamine D2 receptor and serotonin 2a receptor (Homo sapiens) (UniProt P14416+P28223). In words: Selectivity ratio for inhibition of dopamine D2 receptor to that of 5-HT2A receptor. The format is protein assay.
Test [2] deals with 5-hydroxytryptamine receptor 2A (Homo sapiens, UniProt P28223). In words: Binding affinity towards 5-hydroxytryptamine 2A receptor using [125I]DOI as radioligand.
The target of test [3] is T1, 5-hydroxytryptamine receptor 2C (Homo sapiens, UniProt P28335).
T1 sequence (P28335 whole entry): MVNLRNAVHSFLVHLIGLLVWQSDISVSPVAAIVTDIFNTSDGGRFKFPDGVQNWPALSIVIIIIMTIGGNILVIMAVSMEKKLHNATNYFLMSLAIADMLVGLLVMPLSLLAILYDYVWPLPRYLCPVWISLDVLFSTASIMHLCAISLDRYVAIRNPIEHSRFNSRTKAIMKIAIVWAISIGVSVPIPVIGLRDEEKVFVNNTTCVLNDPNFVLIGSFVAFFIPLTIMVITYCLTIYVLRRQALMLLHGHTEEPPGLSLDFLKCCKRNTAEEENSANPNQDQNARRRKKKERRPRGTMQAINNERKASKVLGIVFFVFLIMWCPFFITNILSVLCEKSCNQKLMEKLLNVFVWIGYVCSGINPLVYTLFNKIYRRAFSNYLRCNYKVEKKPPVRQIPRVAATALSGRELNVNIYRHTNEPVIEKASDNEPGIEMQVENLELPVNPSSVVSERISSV
Kind of test: Binding affinity towards 5-hydroxytryptamine 2C receptor using [125I]DOI as radioligand.

In the next test the target is D(2) dopamine receptor (Homo sapiens, UniProt P14416). In words: Binding affinity towards DA D2 receptor using [3H]N-methyl-spiperone as radioligand.
In a further test the test system is Rattus norvegicus. Kind of test: Inhibition of quipazine induced head twitching after peroral administration in rat. The class given is functional. The conditions noted are these: po.

Broadly, the Ki is the equilibrium dissociation constant of an inhibitor or competing ligand from its target. A low value points to a stronger hold on the target. For orientation: ED50 means the midpoint of the dose-response relation. Read a low ED50 as greater potency.

D(2) dopamine receptor, sequence (P14416 whole entry): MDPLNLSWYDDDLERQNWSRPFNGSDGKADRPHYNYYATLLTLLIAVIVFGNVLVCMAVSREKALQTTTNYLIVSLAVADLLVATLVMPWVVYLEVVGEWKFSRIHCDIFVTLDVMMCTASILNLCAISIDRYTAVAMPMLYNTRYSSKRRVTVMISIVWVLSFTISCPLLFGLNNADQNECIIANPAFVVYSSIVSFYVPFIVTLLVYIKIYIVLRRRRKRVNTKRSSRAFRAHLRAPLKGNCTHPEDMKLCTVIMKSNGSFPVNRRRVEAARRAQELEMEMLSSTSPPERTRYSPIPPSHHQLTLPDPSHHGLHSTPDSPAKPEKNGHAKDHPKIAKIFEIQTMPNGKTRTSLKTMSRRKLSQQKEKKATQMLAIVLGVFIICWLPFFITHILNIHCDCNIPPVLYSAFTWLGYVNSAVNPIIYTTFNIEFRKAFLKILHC
Dopamine D2 receptor and serotonin 2a receptor (Homo sapiens), sequence (P14416 whole entry, looked up): as the sequence (P14416 whole entry) above
Dopamine D2 receptor and serotonin 2a receptor (Homo sapiens), sequence (P28223 whole entry, looked up): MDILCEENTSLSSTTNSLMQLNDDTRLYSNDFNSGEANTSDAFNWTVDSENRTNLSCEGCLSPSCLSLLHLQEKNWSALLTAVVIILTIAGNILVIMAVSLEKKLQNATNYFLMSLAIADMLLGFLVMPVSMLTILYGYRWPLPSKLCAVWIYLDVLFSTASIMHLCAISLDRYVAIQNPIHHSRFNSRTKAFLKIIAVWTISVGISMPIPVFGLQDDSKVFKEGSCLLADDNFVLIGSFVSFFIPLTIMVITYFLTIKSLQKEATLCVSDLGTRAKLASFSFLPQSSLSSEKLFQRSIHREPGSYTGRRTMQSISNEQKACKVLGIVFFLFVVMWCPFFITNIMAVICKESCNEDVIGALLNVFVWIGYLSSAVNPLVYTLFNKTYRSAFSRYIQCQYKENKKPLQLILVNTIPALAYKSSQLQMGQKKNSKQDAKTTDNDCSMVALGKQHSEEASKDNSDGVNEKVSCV
5-hydroxytryptamine receptor 2A, sequence (P28223 whole entry): as the sequence (P28223 whole entry, looked up) above

With `Nc1ccccc1C(=O)CCCN1CC[C@H]2[C@@H](C1)c1cccc3c1N2CCCS3` (stereo in doubt; 4) [listing 1 of 2 here], the Ratio in test [1] came to 2.9.
For `Nc1ccccc1C(=O)CCCN1CC[C@@H]2[C@H](C1)c1cccc3c1N2CCO3`, the results for the Ki (in test [2]; in test [3]; at D(2) dopamine receptor) were 11.9 nM, 501 nM and 60 nM, respectively. Further, the Ratio in test [1] turned out to be 5.
Take `Nc1cc(F)ccc1C(=O)CCCN1CC[C@H]2[C@@H](C1)c1cccc3c1N2CCC3`: the Ki in test [2] is 0.5 nM; in test [3], 53 nM; at D(2) dopamine receptor it was 5.2 nM. Moreover, the Ratio in test [1] is 10.2.
On the same counts, the results for `Nc1ccccc1C(=O)CCCN1CC[C@@H]2[C@H](C1)c1cccc3c1N2CCCS3` are 10.4 nM, 320 nM, 5.9 nM and 0.57.
Take `Nc1cc(O)ccc1C(=O)CCCN1CC[C@H]2[C@@H](C1)c1cccc3c1N2CCCS3`: the Ki worked out at 90 nM in test [2], 259 nM in test [3] and 50 nM on D(2) dopamine receptor. Moreover, the Ratio in test [1] amounted to 0.56.
Consider `Nc1cc(F)ccc1C(=O)CCCN1CC[C@H]2[C@@H](C1)c1cccc3c1N2CCS3`, for which the Ki worked out at 0.3 nM in test [2], 90 nM in test [3] and 4 nM on D(2) dopamine receptor. For the same compound, in test [1], the Ratio stood at 13.
Regarding `Nc1ccccc1C(=O)CCCN1CC[C@H]2[C@@H](C1)c1cccc3c1N2CCC3`, the Ki stood at 0.8 nM in test [2], 106 nM in test [3] and 68 nM at D(2) dopamine receptor. The Ratio in test [1] is 85.
For the compound `Nc1cc(Br)ccc1C(=O)CCCN1CC[C@H]2[C@@H](C1)c1cccc3c1N2CCCS3`, the Ki in test [2] was found to be 79 nM; in test [3] it was 112 nM; at D(2) dopamine receptor it was 4.7 nM. Moreover, the Ratio in test [1] turned out to be 0.06.
`Nc1cc(Cl)ccc1C(=O)CCCN1CC[C@H]2[C@@H](C1)c1cccc3c1N2CCCS3`: the Ki amounted to 70 nM in test [2], 754 nM in test [3] and 2.3 nM on D(2) dopamine receptor. Also, the Ratio in test [1] turned out to be 0.03.
With `Nc1cc(F)ccc1C(=O)CCCN1CC[C@H]2[C@@H](C1)c1cccc3c1N2CCCS3` (stereo in doubt; 6) [listing 1 of 2 here], in test [1], the Ratio came to 5.9.
For the compound `Nc1cc(F)ccc1C(=O)CCCN1CC[C@H]2[C@@H](C1)c1cccc3c1N2CCO3`, the figures for the Ki (in test [2]; in test [3]; at D(2) dopamine receptor) were 0.2 nM, 128 nM and 2.3 nM, respectively. Besides, the Ratio in test [1] came to 12.
Turning to `Nc1cc(F)ccc1C(=O)CCCN1CC[C@@H]2[C@H](C1)c1cccc3c1N2CCCS3`, the Ki was 4.2 nM in test [2], 452 nM in test [3] and 4.7 nM at D(2) dopamine receptor. Moreover, in test [1], the Ratio stood at 1.1.
For the compound `Nc1ccccc1C(=O)CCCN1CC[C@H]2[C@@H](C1)c1cccc3c1N2CCCC3`, the inhibition constant Ki in test [2] is 0.7 nM; in test [3], 106 nM; at D(2) dopamine receptor it was 11 nM. Also, the Ratio in test [1] turned out to be 16.
For the compound `Nc1ccccc1C(=O)CCCN1CC[C@H]2[C@@H](C1)c1cccc3c1N2CCCS3` (stereo in doubt; (+)-4) [listing 1 of 2 here], in test [1], the Ratio is 25.
For the compound `CS(=O)(=O)Nc1cc(F)ccc1C(=O)CCCN1CC[C@H]2[C@@H](C1)c1cccc3c1N2CCCS3`, the values for the Ki (in test [2]; in test [3]; on D(2) dopamine receptor) were 7.5 nM, 639 nM and 18 nM, respectively. Besides, the Ratio in test [1] came out at 2.4.
Turning to `Nc1cc(F)ccc1C(=O)CCCN1CC[C@H]2[C@@H](C1)c1cccc3c1N2CCCS3` (stereo in doubt; (+)-6) [listing 1 of 2 here], the Ki in test [2] is 0.4 nM; in test [3] it was 82 nM; on D(2) dopamine receptor, 2.7 nM. For the same compound, the median effective dose (ED50) in the test with Rattus norvegicus was 0.52 mg/kg.
As to `Nc1cc(F)ccc1C(=O)CCCN1CC[C@@H]2[C@H](C1)c1cccc3c1N2CCC3`, the Ki was 1.2 nM in test [2], 71 nM in test [3] and 29 nM on D(2) dopamine receptor. Further, the Ratio in test [1] amounted to 24. In the test with Rattus norvegicus, this compound returned an ED50 of 1.4 mg/kg.
Turning to `CNc1ccccc1C(=O)CCCN1CC[C@H]2[C@@H](C1)c1cccc3c1N2CCCS3`, the Ki was found to be 62 nM in test [2], 253 nM in test [3] and 31 nM on D(2) dopamine receptor. The Ratio in test [1] worked out at 0.5.
In the case of `CC(=O)Nc1cc(F)ccc1C(=O)CCCN1CC[C@H]2[C@@H](C1)c1cccc3c1N2CCCS3`, the Ki in test [2] turned out to be 0.8 nM; in test [3] it was 222 nM; at D(2) dopamine receptor, 3.4 nM. In addition, the Ratio in test [1] was found to be 4.3.
On to `Nc1ccc(F)cc1C(=O)CCCN1CC[C@H]2[C@@H](C1)c1cccc3c1N2CCCS3`, for which the Ki in test [2] worked out at 15 nM; in test [3], 258 nM; at D(2) dopamine receptor, 15 nM. Moreover, in test [1], the Ratio is 1.
As for `Nc1ccccc1C(=O)CCCN1CC[C@H]2[C@@H](C1)c1cccc3c1N2CCO3`, the results for the Ki (in test [2]; in test [3]; on D(2) dopamine receptor) were 1.6 nM, 335 nM and 23 nM, respectively. Also, in test [1], the Ratio came to 14.
As for `Nc1cc(F)ccc1C(=O)CCCN1CC[C@H]2[C@@H](C1)c1cccc3c1N2CCCC3`, the Ki in test [2] was 0.6 nM; in test [3] it was 136 nM; at D(2) dopamine receptor, 3.5 nM. In addition, the Ratio in test [1] was determined as 5.8.
Take `Nc1cc(F)ccc1C(=O)CCCN1CC[C@@H]2[C@H](C1)c1cccc3c1N2CCS3`: the Ki in test [2] came out at 1.5 nM; in test [3], 184 nM; at D(2) dopamine receptor it was 14 nM. The Ratio in test [1] was found to be 9.3.
In the same order, the values of `O=C(CCCN1CC[C@H]2[C@@H](C1)c1cccc3c1N2CCCS3)c1ccccc1` are 2.7 nM, 417 nM, 17 nM and 6.3.
In the same order, the values of `Nc1c(F)cccc1C(=O)CCCN1CC[C@H]2[C@@H](C1)c1cccc3c1N2CCCS3` are 7.6 nM, 672 nM, 14 nM and 1.8.
`Nc1ccccc1C(=O)CCCN1CC[C@H]2[C@@H](C1)c1cccc3c1N2CCS3`: the Ki in test [2] is 0.8 nM; in test [3], 417 nM; at D(2) dopamine receptor it was 41 nM. In test [1], the Ratio stood at 51.
Regarding `O=C(CCCN1CC[C@H]2[C@@H](C1)c1cccc3c1N2CCCS3)c1ccc(F)cc1`, the Ki is 2.5 nM in test [2], 609 nM in test [3] and 8.8 nM at D(2) dopamine receptor. Moreover, the Ratio in test [1] was determined as 3.5. Besides, in the test with Rattus norvegicus, the median effective dose (ED50) came to 0.86 mg/kg.
With `Nc1cc(F)ccc1C(=O)CCCN1CC[C@H]2[C@@H](C1)c1cccc3c1N2CCCS3` (stereo in doubt; (+)-6) [listing 2 of 2 here], the Ratio in test [1] turned out to be 6.8.
On to `Nc1ccccc1C(=O)CCCN1CC[C@@H]2[C@H](C1)c1cccc3c1N2CCCC3`, for which the Ki in test [2] amounted to 3.1 nM; in test [3] it was 148 nM; at D(2) dopamine receptor, 20 nM. In test [1], the Ratio was 6.5.
On the same counts, the results for `CCOC(=O)Nc1cc(F)ccc1C(=O)CCCN1CC[C@H]2[C@@H](C1)c1cccc3c1N2CCCS3` are 51 nM, 349 nM, 15.1 nM and 0.29.
For `Nc1cc(F)ccc1C(=O)CCCN1CC[C@H]2[C@@H](C1)c1cccc3c1N2CCCS3` (stereo in doubt; 6) [listing 2 of 2 here], the Ki amounted to 0.7 nM in test [2], 106 nM in test [3] and 4.1 nM on D(2) dopamine receptor.
With `Nc1ccccc1C(=O)CCCN1CC[C@@H]2[C@H](C1)c1cccc3c1N2CCC3`, the Ki worked out at 3.7 nM in test [2], 94 nM in test [3] and 63 nM at D(2) dopamine receptor. In test [1], the Ratio came out at 17.
`Nc1cc(F)ccc1C(=O)CCCN1CC[C@@H]2[C@H](C1)c1cccc3c1N2CCO3`: the inhibition constant Ki in test [2] was determined as 2.8 nM; in test [3] it was 664 nM; at D(2) dopamine receptor it was 16 nM. For the same compound, the Ratio in test [1] turned out to be 5.7. Also, the 50% effect level with Rattus norvegicus (ED50) was put at a dose of 0.03 mg/kg.
As to `Nc1ccccc1C(=O)CCCN1CC[C@H]2[C@@H](C1)c1cccc3c1N2CCCS3` (stereo in doubt; 4) [listing 2 of 2 here], the Ki amounted to 2.1 nM in test [2], 200 nM in test [3] and 6 nM at D(2) dopamine receptor.
For the compound `Nc1cc(F)ccc1C(=O)CCCN1CC[C@@H]2[C@H](C1)c1cccc3c1N2CCCC3`, the Ki was determined as 0.9 nM in test [2], 136 nM in test [3] and 19 nM at D(2) dopamine receptor. The Ratio in test [1] was found to be 21.
Regarding `O=CNc1cc(F)ccc1C(=O)CCCN1CC[C@H]2[C@@H](C1)c1cccc3c1N2CCCS3`, the Ki in test [2] came to 90 nM; in test [3] it was 259 nM; on D(2) dopamine receptor it was 7.7 nM. Besides, the Ratio in test [1] was 0.09.
In the case of `Nc1ccccc1C(=O)CCCN1CC[C@@H]2[C@H](C1)c1cccc3c1N2CCS3`, the Ki worked out at 6.6 nM in test [2], 237 nM in test [3] and 19 nM at D(2) dopamine receptor. In addition, in test [1], the Ratio was found to be 2.9.
On the same counts, the results for `CCNC(=O)Nc1cc(F)ccc1C(=O)CCCN1CC[C@H]2[C@@H](C1)c1cccc3c1N2CCCS3` are 11 nM, 48 nM, 26 nM and 2.3.
Turning to `Nc1ccccc1C(=O)CCCN1CC[C@H]2[C@@H](C1)c1cccc3c1N2CCCS3` (stereo in doubt; (+)-4) [listing 2 of 2 here], the Ki in test [2] came out at 0.6 nM; in test [3], 172 nM; on D(2) dopamine receptor it was 15 nM.
